Assay results as given in patent publication US8232271B2 (priority 2008, dated 2012).

Columns and labels:
[1] = molecular target: T1, HCV polymerase (NS5B570n-Con1) (Hepatitis C virus genotype 1b, UniProt Q9WMX2); assay: HCV NS5B RNA polymerase activity assay; type: biochemical, HCV Con1 strain
T1 construct: contains a 21 amino acid deletion at the C-terminus relative to the full-length HCV polymerase; 6-histidine (N); made in house; host or cells: E. coli BL21(DE) pLysS, plasmid pET17b
Description: The enzymatic activity of HCV polymerase (NS5B570n-Con1) was measured as the incorporation of radiolabeled nucleotide monophosphates into acid insoluble RNA products. Unincorporated radiolabeled substrate was removed by filtration and scintillant was added to the washed and dried filter plate containing radiolabeled RNA product. The amount of RNA product generated by NS5B570-Con1 at the end of the reaction was directly proportional to the amount of light emitted by the scintillant.
The N-terminal 6-histidine tagged HCV polymerase, derived from HCV Con1 strain, genotype 1b (NS5B570n-Con1) contains a 21 amino acid deletion at the C-terminus relative to the full-length HCV polymerase and was purified from E. coli strain BL21(DE) pLysS. The construct, containing the coding sequence of HCV NS5B Con1 (GenBank accession number AJ242654) was inserted into the plasmid construct pET17b, downstream of a T7 promoter expression cassette and transformed into E. coli. A single colony was grown overnight as a starter culture and later used inoculate 10 L of LB media supplemented with 100 μg/mL ampicillin at 37° C. Protein expression was induced by the addition of 0.25 mM isopropyl-β-D-thiogalactopyranoside (IPTG) when optical density at […] of the culture was between 0.6 and 0.8 and cells were harvested after 16 to 18 h at 30° C. NS5B570n-Con1 was purified to homogeneity using a three-step protocol including subsequent column chromatography on Ni-NTA, SP-Sepharose HP and Superdex 75 resins.
Each 50 μl enzymatic reaction contained 20 nM RNA template derived from the complementary sequence of the Internal Ribosome Entry Site (cIRES), 20 nM NS5B570n-Con1 enzyme, 0.5 μCi of tritiated UTP (Perkin Elmer catalog no. TRK-412; specific activity: 30 to 60 Ci/mmol; stock solution concentration from 7.5×10^-5 M to 20.6×10^-6 M), 1 μM each ATP, CTP, and GTP, 40 mM Tris-HCl pH 8.0, 40 mM NaCl, 4 mM DTT (dithiothreitol), 4 mM MgCl2, and 5 μl of compound serial diluted in DMSO. Reaction mixtures were assembled in 96-well filter plates (cat #MADVN0B, Millipore Co.) and incubated for 2 h at 30° C. Reactions were stopped by addition of 10% final (v/v) trichloroacetic acid and incubated for 40 min at 4° C. Reactions were filtered, washed with 8 reaction volumes of 10% (v/v) trichloroacetic acetic acid, 4 reaction volumes of 70% (v/v) ethanol, air dried, and 25 μl of scintillant (Microscint 20, Perkin-Elmer) was added to each reaction well.
The amount of light emitted from the scintillant was converted to counts per minute (CPM) on a Topcount® plate reader (Perkin-Elmer, Energy Range: Low, Efficiency Mode: Normal, Count Time: 1 min, Background Subtract: none, Cross talk reduction: Off).
Data was analyzed in Excel® (Microsoft®) and ActivityBase® (Idbs®). The reaction in the absence of enzyme was used to determine the background signal, which was subtracted from the enzymatic reactions. Positive control reactions were performed in the absence of compound, from which the background corrected activity was set as 100% polymerase activity. All data was expressed as a percentage of the positive control. The compound concentration at which the enzyme-catalyzed rate of RNA synthesis was reduced by 50% (IC50) was calculated by fitting
[formula] equation (i) to the data. where “Y” corresponds to the relative enzyme activity (in %), “% Min” is the residual relative activity at saturating compound concentration, “% Max” is the relative maximum enzymatic activity, “X” corresponds to the compound concentration, and “S” is the Hill coefficient (or slope).

in vitro = details: human
[2] = tested on: HCV replicon cells (2209-23); assay: HCV replicon assay (Renilla luciferase reporter); type: cell-based, HCV genotype 1b; details: Hepatitis C virus, 72 h; three days incubation
HCV = details: monotherapy; cited from earlier work

## COc1cc(CNC(=O)c2cccc(NS(C)(=O)=O)c2)c(-c2ccc[nH]c2=O)cc1C(C)(C)C [Compound I-63]
[1]
  IC50: 12 nM
In vitro
  CC50: 43700 nM
[2]
  IC50: 34 nM
other
  melting point: 259 to 260 °C

## COc1cc(CNC(=O)[C@H]2CC[C@H](NS(C)(=O)=O)C2)c(-c2ccc[nH]c2=O)cc1C(C)(C)C [Compound I-81, (1S,3S)-3-Methanesulfonylamino-cyclopentanecarboxylic acid 4-tert-butyl-5-methoxy-2-(2-oxo-1,2-dihydro-pyridin-3-yl)-benzylamide]
[1]
  IC50: 22 nM
[2]
  IC50: 238 nM
other
  melting point: 158 to 160 °C

## NC(=O)c1ncn([C@@H]2O[C@H](CO)[C@@H](O)[C@H]2O)n1 [ribavirin, 1-((2R,3R,4S,5R)-3,4-Dihydroxy-5-hydroxymethyl-tetrahydro-furan-2-yl)-1H-[1,2,4]triazole-3-carboxylic acid amide]
HCV
  effect on serum levels of HCV-RNA: does not lower serum levels of HCV-RNA
  patients with serum amino transferase levels reduced to normal: 40%

## COc1cc(CN2CCCS2(=O)=O)c(-c2ccc[nH]c2=O)cc1C(C)(C)C [Compound I-21, 3-[5-tert-Butyl-2-(1,1-dioxo-1λ^6-isothiazolidin-2-ylmethyl)-4-methoxy-phenyl]-1H-pyridin-2-one]
[1]
  IC50: 17 nM
[2]
  IC50: 168 nM
other
  melting point: 109.4 to 126.9 °C

## COc1cc(CNC(=O)c2ccc(O)cc2)c(-c2ccc[nH]c2=O)cc1C(C)(C)C [Compound I-38, N-[4-tert-Butyl-5-methoxy-2-(2-oxo-1,2-dihydro-pyridin-3-yl)-benzyl]-4-hydroxy-benzamide]
[1]
  IC50: 16 nM
In vitro
  CC50: 92900 nM
[2]
  IC50: 310 nM
other
  melting point: 205 to 210 °C

## COc1cc(CN2CCCCS2(=O)=O)c(-c2ccc[nH]c2=O)cc1C(C)(C)C [Compound I-16]
[1]
  IC50: 35 nM
other
  melting point: 225.8 to 226.1 °C

## COc1cc(CN2CCNS2(=O)=O)c(-c2ccc[nH]c2=O)cc1C(C)(C)C [Compound I-60, 3-[5-tert-Butyl-2-(1,1-dioxo-1λ^6-[1,2,5]thiadiazolidin-2-ylmethyl)-4-methoxy-phenyl]-1H-pyridin-2-on]
[1]
  IC50: 23 nM
other
  melting point: 230 to 231 °C

## COc1cc(CN2C(=O)CC[C@@H]2CO)c(-c2ccc[nH]c2=O)cc1C(C)(C)C [Compound I-83]
[1]
  IC50: 146 nM
other
  melting point: 150 to 152 °C

## COc1cc(CNS(=O)(=O)C(C)C)c(-c2ccc[nH]c2=O)cc1C(C)(C)C [Compound I-25]
[1]
  IC50: 183 nM
other
  melting point: 118 to 120 °C

## COc1cc(CN(c2ccccc2)S(C)(=O)=O)c(-c2ccc[nH]c2=O)cc1C(C)(C)C [Compound I-34]
[1]
  IC50: 13 nM
In vitro
  CC50: 44200 nM
[2]
  IC50: 936 nM
other
  melting point: 226 to 227 °C

## COc1cc(CN2CCN(C(=O)OC(C)(C)C)S2(=O)=O)c(-c2ccc[nH]c2=O)cc1C(C)(C)C [Compound I-61]
[1]
  IC50: 319 nM
other
  melting point: 125 to 127 °C

## COc1cc(CCNS(C)(=O)=O)c(-c2ccc[nH]c2=O)cc1C(C)(C)C [Compound I-17, N-{2-[4-tert-butyl-5-methoxy-2-(2-oxo-1,2-dihydro-pyridin-3-yl)-phenyl]-ethyl}-methanesulfonamide]
[1]
  IC50: 280 nM
other
  melting point: 219.3 to 222.4 °C

## COc1cc(C(=O)N2CCS(=O)(=O)CC2)c(-c2ccc[nH]c2=O)cc1C(C)(C)C [Compound I-51]
[1]
  IC50: 552 nM
other
  melting point: 252 to 254 °C

## COc1cc(CN(C)C(=O)c2ccccc2)c(-c2ccc[nH]c2=O)cc1C(C)(C)C [Compound I-22]
[1]
  IC50: 25 nM
other
  melting point: 236.2 to 238 °C

## COc1cc(C(=O)N2CCOCC2)c(-c2ccc[nH]c2=O)cc1C(C)(C)C [Compound I-40]
[1]
  IC50: 533 nM
other
  melting point: 208 to 210 °C

## COc1cc(CCO)c(-c2ccc[nH]c2=O)cc1C(C)(C)C [Compound I-5, 3-[5-tert-Butyl-2-(2-hydroxy-ethyl)-4-methoxy-phenyl]-1H-pyridin-2-one]
[1]
  IC50: 1580 nM
other
  melting point: 231.8 to 233.7 °C

## COc1cc(C(=O)N2CCC(F)(F)CC2)c(-c2ccc[nH]c2=O)cc1C(C)(C)C [Compound I-62]
[1]
  IC50: 955 nM
other
  melting point: 223 to 224 °C
